Assay results reported in US7091207B2, “Method of treating myocardial infarction with PDE-5 inhibitors” (Virginia Commonwealth University, priority 2002, dated 2006).
Several values for one entry are separate records, joined by “and”; a condition that tells them apart may be missing. Equal values may be shown once. Marks after values point to notes of the source that are not given here.

Assays:
iNOS = test: Cardiac iNOS mRNA (RT-PCR) and protein (Western blot) expression after treatment; type: in vivo, mouse; settings: 0.7 mg/kg IP
Protocol: Adult male outbred ICR mice were supplied by Harlan Inc (Indianapolis, Ind.). Viagra pills (Pfizer Inc) were ground into powder and dissolved in saline. The drug solution was filtered (0.45-μm pore size) before intraperitoneal injection. 1400W, an iNOS inhibitor, was obtained from Alexis. We used an isolated perfused mouse heart model subjected to 20 minutes of global ischemia and 30 minutes of reperfusion (Langendorff mode). Myocardial I-R injury was assessed by measuring infarct size, contractile function, and coronary flow as described previously (Xi, 1999). Twenty-eight mice were randomized into the following 4 groups: (n=6 to 9 per group): (1) saline (0.15 mL IP), (2) sildenafil (0.7 mg/kg IP, equivalent to 50 mg Viagra pill used for patients with erectile dysfunction, given 24 hours before I-R), (3) sildenafil+1400W (10 mg/kg IP, 14 given 30 minutes before I-R), and (4) saline+1400W. Measurement of NOS Isoforms Mice were treated with sildenafil (0.7 mg/kg IP), and their hearts were removed at 15, 30, and 45 minutes and 1, 2, 3, 4, and 24 hours after injection (n=3 per group). Three nontreated hearts were used as controls. Tissue samples were ground under liquid nitrogen and homogenized with TRI Reagent (Molecular Research Center) for extracting total RNA, which was reverse-transcribed into cDNA at 50° C. for 30 minutes using a OneStep reverse transcription (RT)-polymerase chain reaction (PCR) kit from Qiagen. The oligonucleotide primers were synthesized on the basis of published sequences for murine iNOS, eNOS, and GAPDH15 (Integrated DNA Technology). The RT-PCR products were electrophoresed on 1.5% Trisacetate-EDTA agarose gel. The target bands were identified on the basis of their specific size using DNA standards. iNOS and eNOS proteins were measured by Western blots as described previously. […] The mRNA and protein expression were quantified by scanning each of the RT-PCR or Western blot band using a densitometer (Bioquant 98). […]

[1] = tested on: nNOS, iNOS and eNOS knockout mouse hearts; test: Delayed cardioprotection in NOS gene-knockout mice, isolated perfused heart, 30 min global ischemia and 60 min reperfusion; type: in vivo; settings: iNOS-KO mice
[2] = tested on: rabbit heart, ischemia/reperfusion injury; test: In situ rabbit model of myocardial infarction (30 min coronary occlusion, 180 min reperfusion), infarct size by TTC staining; type: in vivo; settings: for reduction of infarct size vs saline control: 0.7 mg/kg IV
[3] = Systemic hemodynamics (blood pressure, heart rate, rate pressure product) in rabbits; type: in vivo, rabbit
[4] = oral 1.4 mg/kg, after 30 minutes
[5] = oral sildenafil citrate 1.4 mg/kg, Acute, 30-min Ischemia
[6] = oral sildenafil citrate 1.4 mg/kg, Acute, 60-min Reperfusion
[7] = oral sildenafil citrate 1.4 mg/kg, Acute, 80-min Reperfusion
[8] = oral sildenafil citrate 1.4 mg/kg, Acute, 120-min Reperfusion
[9] = oral sildenafil citrate 1.4 mg/kg, Acute, Baseline
[10] = oral sildenafil citrate 1.4 mg/kg, Acute, Preischemia
[11] = oral sildenafil citrate 1.4 mg/kg, Delayed, 30-min Ischemia
[12] = oral sildenafil citrate 1.4 mg/kg, Delayed, 60-min Reperfusion
[13] = oral sildenafil citrate 1.4 mg/kg, Delayed, 80-min Reperfusion
[14] = oral sildenafil citrate 1.4 mg/kg, Delayed, 120-min Reperfusion
[15] = oral sildenafil citrate 1.4 mg/kg, Delayed, Baseline
[16] = oral sildenafil citrate 1.4 mg/kg, Delayed, Preischemia
[17] = sildenafil 0.7 mg/kg IV, acute phase, 30-min Ischemia
[18] = sildenafil 0.7 mg/kg IV, acute phase, Baseline
[19] = sildenafil 0.7 mg/kg IV, acute phase, Preischemia
[20] = sildenafil 0.7 mg/kg IV, acute phase, Reperfusion (60 min)
[21] = sildenafil 0.7 mg/kg IV, acute phase, Reperfusion (120 min)
[22] = sildenafil 0.7 mg/kg IV, acute phase, Reperfusion (180 min)
[23] = sildenafil 0.7 mg/kg IV, delayed phase, 30-min Ischemia
[24] = sildenafil 0.7 mg/kg IV, delayed phase, Baseline
[25] = sildenafil 0.7 mg/kg IV, delayed phase, Preischemia
[26] = sildenafil 0.7 mg/kg IV, delayed phase, Reperfusion (60 min)
[27] = sildenafil 0.7 mg/kg IV, delayed phase, Reperfusion (120 min)
[28] = sildenafil 0.7 mg/kg IV, delayed phase, Reperfusion (180 min)
[29] = sildenafil citrate 0.7 mg/kg intravenous, within 2 minutes

## CCCc1nn(C)c2c(=O)[nH]c(-c3cc(S(=O)(=O)N4CCN(C)CC4)ccc3OCC)nc12 [sildenafil]
iNOS
  iNOS mRNA and protein expression: increase
  magnitude of increase, iNOS compared with eNOS: much higher for iNOS
  time of peak iNOS mRNA level: 2 h
[1]
  delayed cardioprotection: absent
[2]; 0.1 mg/kg, 30 minutes prior to ischemia
  infarct size: 17.05%
[2]; 0.2 mg/kg, 30 minutes prior to ischemia
  infarct size: 13.53±1.24
[2]; 30 minutes prior to ischemia
  infarct limiting effect at lower doses (0.2 and 0.1 mg/kg) versus the 0.7 mg/kg dose: comparable
[2]; acute phase, 0.7 mg/kg
  reduction of infarct size vs saline control: 68% and 67%
[2]; acute phase: sildenafil 0.7 mg/kg IV 30 min prior to ischemia/reperfusion
  infarct size: 10.8±0.9 % of risk area
[2]; delayed phase
  reduction of infarct size vs saline control: 41%
[2]; delayed phase: sildenafil 0.7 mg/kg IV 24 hrs prior to ischemia/reperfusion
  infarct size: 19.9±2.0 % of risk area
[2]; total dose 0.7 mg/kg infused from 25 min of ischemia into reperfusion for 1 hr, 0.7 mg/kg
  infarct size: 18.37±2.42
[2]; total dose 0.7 mg/kg infused from 25 min of ischemia into reperfusion for 1 hr, listed as Sildenafil, 0.7 mg/kg
  infarct size: significant reduction in the infarct size
[3]; 0.7 mg/kg intravenous
  changes in heart rate: No significant changes in heart rate
  time until systemic hemodynamics returned to nearly baseline levels: ≤ 5 min
[3]; oral 1.4 mg/kg
  changes in heart rate: No changes in heart rate
[3]; [4]
  decrease in diastolic pressure: ~12.5%
  decrease in mean arterial pressure: ~10.3%
  decrease in systolic pressure: approximately 9.2%
[3]; oral 1.4 mg/kg, at 60 minutes
  hypotensive response: remained significant
[3]; [5]
  HR: 216 ± 18 beats/min
  MAP: 96 ± 6 mmHg
  RPP (systolic arterial pressure x HR): 23137 ± 1617
[3]; [6]
  HR: 205 ± 14 beats/min
  MAP: 89 ± 0.4 mmHg
  RPP (systolic arterial pressure x HR): 21647 ± 2274
[3]; [7]
  HR: 187 ± 9 beats/min
  MAP: 81 ± 5c mmHg
  RPP (systolic arterial pressure x HR): 18555 ± 1336
[3]; [8]
  HR: 187 ± 9 beats/min
  MAP: 82 ± 5c mmHg
  RPP (systolic arterial pressure x HR): 17738 ± 860c
[3]; [9]
  HR: 216 ± 5 beats/min
  MAP: 100 ± 2a mmHg
  RPP (systolic arterial pressure x HR): 24859 ± 239
[3]; [10]
  HR: 210 ± 20 beats/min
  MAP: 95 ± 3 mmHg
  RPP (systolic arterial pressure x HR): 22848 ± 2027
[3]; [11]
  HR: 190 ± 18 beats/min
  MAP: 104 ± 5 mmHg
  RPP (systolic arterial pressure x HR): 22089 ± 2288
[3]; [12]
  HR: 185 ± 14 beats/min
  MAP: 103 ± 8 mmHg
  RPP (systolic arterial pressure x HR): 20955 ± 1469
[3]; [13]
  HR: 173 ± 16 beats/min
  MAP: 94 ± 8 mmHg
  RPP (systolic arterial pressure x HR): 18838 ± 1913
[3]; [14]
  HR: 171 ± 15 beats/min
  MAP: 94 ± 8 mmHg
  RPP (systolic arterial pressure x HR): 17692 ± 978
[3]; [15]
  HR: 187 ± 15 beats/min
  MAP: 109 ± 3 mmHg
  RPP (systolic arterial pressure x HR): 22626 ± 2173
[3]; [16]
  HR: 193 ± 7 beats/min
  MAP: 99 ± 3 mmHg
  RPP (systolic arterial pressure x HR): 21938 ± 989
[3]; [17]
  HR: 208 ± 11 beats/min
  MAP: 76 ± 7 mmHg
  RPP (systolic arterial pressure × HR): 17,728 ± 1441
[3]; [18]
  HR: 247 ± 20 beats/min
  MAP: 77 ± 4^f mmHg
  RPP (systolic arterial pressure × HR): 21,988 ± 2129
[3]; [19]
  HR: 204 ± 8 beats/min
  MAP: 81 ± 6^f mmHg
  RPP (systolic arterial pressure × HR): 18,132 ± 999
[3]; [20]
  HR: 201 ± 14 beats/min
  MAP: 76 ± 5^f mmHg
  RPP (systolic arterial pressure × HR): 16748 ± 1425
[3]; [21]
  HR: 177 ± 11^a beats/min
  MAP: 74 ± 5^f mmHg
  RPP (systolic arterial pressure × HR): 14909 ± 1289^a
[3]; [22]
  HR: 158 ± 12^a beats/min
  MAP: 73 ± 5^f mmHg
  RPP (systolic arterial pressure × HR): 12,967 ± 1115^a
[3]; [23]
  HR: 189 ± 8^a beats/min
  MAP: 73 ± 9 mmHg
  RPP (systolic arterial pressure × HR): 15,395 ± 1784
[3]; [24]
  HR: 229 ± 14 beats/min
  MAP: 76 ± 5^f mmHg
  RPP (systolic arterial pressure × HR): 19,692 ± 1528
[3]; [25]
  HR: 215 ± 8 beats/min
  MAP: 71 ± 5^f mmHg
  RPP (systolic arterial pressure × HR): 17,764 ± 1174
[3]; [26]
  HR: 179 ± 8^a,b beats/min
  MAP: 74 ± 9^f mmHg
  RPP (systolic arterial pressure × HR): 15,086 ± 1989
[3]; [27]
  HR: 170 ± 8^a,b beats/min
  MAP: 73 ± 5^f mmHg
  RPP (systolic arterial pressure × HR): 13,477 ± 1285^a
[3]; [28]
  HR: 164 ± 11^a,b beats/min
  MAP: 68 ± 3^f mmHg
  RPP (systolic arterial pressure × HR): 12,196 ± 1088^a
[3]; [29]
  decline in diastolic pressure: 47.3%
  decline in mean arterial pressure: 38.8%
  decline in systolic pressure: 24.5%
